Structures are written as SMILES.

One test deals with human venous whole blood, CD8 positive population (pERK). The test can be described thus: DGK human whole blood pERK assay. The format is cell-based. The conditions noted are these: Homo sapiens, CD8 positive, human whole blood pERK; read-out: DGK HWB. The procedure: Assay 11: DGK Human Whole Blood pERK Assay
Human whole blood ERK phosphorylation assay was performed with human venous whole blood obtained from healthy donors (drawn with Heparin as anti-coagulant). […] Heparinized human whole blood was added to the compound plate at 9 μL per well and incubated for one hour at 37° C. in a humidified 95%, air/5% CO2 incubator. After one hour of compound incubation, 1 μL of human anti-CD3 antibody (in-house) in the presence of cross-linking antibody goat anti-mouse IgG (4 μg/mL) was added to the well at 1 μg/mL final concentration for stimulation of pathway and additionally incubated for 15 minutes at 37° C. […] Samples analyzed using the Intellicyt® iQue Screener PLUS. The pERK activation was quantitated by the percentage of pERK positive population within CD8 positive population.
Consider `CCO[C@H]1CN(c2cc(=O)n(C)c3ccc(C#N)nc23)CC[C@@H]1Oc1ccccc1` (relative stereo) [Example 341, trans-8-(3-Ethoxy-4-phenoxypiperidin-1-yl)-5-methyl-6-oxo-5,6-dihydro-1,5-naphthyridine-2-carbonitrile], for which the EC50 is 590 nM.

On to `CC1CN(c2cc(=O)n(C)c3ccc(C#N)nc23)CCC1N(C)Cc1ccc(F)cc1` (single isomer, unassigned) [Example 327, -(4-((4-fluorobenzyl)(methyl)amino)-3-methylpiperidin-1-yl)-5-methyl-6-oxo-5,6-dihydro-1,5-naphthyridine-2-carbonitrile], for which the EC50 stood at 1900 nM.

As for `C[C@H]1CN(c2cc(=O)n(C)c3ccc(C#N)nc23)[C@@H](C)C[C@H]1Oc1cccc(C#N)c1` [Example 314, 8-((2S,4R,5S)-4-(3-cyanophenoxy)-2,5-dimethylpiperidin-1-yl)-5-methyl-6-oxo-5,6-dihydro-1,5-naphthyridine-2-carbonitrile], the EC50 is 16000 nM. On the same count and under the same terms, the value for `CC[C@@H]1CN(c2cc(=O)n(C)c3ccc(C#N)nc23)[C@H](C)C[C@H]1Oc1cccc(C(F)(F)F)c1` [Example 310, 8-((2R,4R,5R)-5-ethyl-2-methyl-4-(3-(trifluoromethyl)phenoxy)piperidin-1-yl)-5-methyl-6-oxo-5,6-dihydro-1,5-naphthyridine-2-carbonitrile] was 9900 nM.

For `CCO[C@H]1CN(c2cc(=O)n(C)c3ccc(C#N)nc23)CC[C@@H]1Oc1ccc(OC(C)C)cc1` [Example 347, 8-((3S,4S)-3-ethoxy-4-(4-isopropoxyphenoxy)piperidin-1-yl)-5-methyl-6-oxo-5,6-dihydro-1,5-naphthyridine-2-carbonitrile], the EC50 came to 350 nM.

Staying with this test, now noted: Homo sapiens, CD8 positive, read-out: DGK HWB, human whole blood pERK.
As for `CCO[C@H]1CN(c2cc(=O)n(C)c3ccc(C#N)nc23)CC[C@@H]1Oc1ccc(OC(C)C)nn1` [Example 375, 8-((3S,4S)-3-ethoxy-4-((6-isopropoxypyridazin-3-yl)oxy)piperidin-1-yl)-5-methyl-6-oxo-5,6-dihydro-1,5-naphthyridine-2-carbonitrile], the EC50 turned out to be 2300 nM. Same read-out and setting: the value for `CC[C@@H]1CN(c2nc(=O)n(C)c3ccc(C#N)nc23)[C@H](C)C[C@H]1Oc1ccc(OC(C)C)cn1` [Example 303, 4-((2R,4R,5R)-5-ethyl-4-((5-isopropoxypyridin-2-yl)oxy)-2-methylpiperidin-1-yl)-1-methyl-2-oxo-1,2-dihydropyrido[3,2-d]pyrimidine-6-carbonitrile] was 380 nM; that for `CC[C@@H]1CN(c2nc(=O)n(C)c3ccc(C#N)nc23)[C@@H](C)C[C@@H]1Oc1ccc(OC(C)C)cn1` [Example 307, 4-((2S,4S,5R)-5-ethyl-4-((5-isopropoxypyridin-2-yl)oxy)-2-methylpiperidin-1-yl)-1-methyl-2-oxo-1,2-dihydropyrido[3,2-d]pyrimidine-6-carbonitrile] was 170 nM; that for `CC[C@@H]1CN(c2cc(=O)n(C)c3ccc(C#N)nc23)[C@@H](C)C[C@H]1Oc1ccc(OC(C)C)cn1` [Example 296, 8-((2S,4R,5R)-5-ethyl-4-((5-isopropoxypyridin-2-yl)oxy)-2-methylpiperidin-1-yl)-5-methyl-6-oxo-5,6-dihydro-1,5-naphthyridine-2-carbonitrile] was 13000 nM. For `C[C@@H]1CN(c2cc(=O)n(C)c3ccc(C#N)nc23)[C@@H](C)CC1N(C)Cc1ccc(F)cc1` (single isomer, unassigned) [Example 331], the EC50 was found to be 11000 nM. The same measure, in the same setting: to `CC[C@@H]1CN(c2cc(=O)n(C)c3ccc(C#N)nc23)[C@H](C)C[C@@H]1Oc1ccc(OC(C)C)cn1` [Example 298, 8-((2R,4S,5R)-5-ethyl-4-((5-isopropoxypyridin-2-yl)oxy)-2-methylpiperidin-1-yl)-5-methyl-6-oxo-5,6-dihydro-1,5-naphthyridine-2-carbonitrile] belongs 910 nM. On the same count and under the same terms, the value for `CC(C)Oc1ccc(OC2C[C@@H](C)N(c3nc(=O)n(C)c4ccc(C#N)nc34)C[C@@H]2C)nc1` (stereo partly drawn) [Example 248, 4-((2R,5S)-4-((5-isopropoxypyridin-2-yl)oxy)-2,5-dimethylpiperidin-1-yl)-1-methyl-2-oxo-1,2-dihydropyrido[3,2-d]pyrimidine-6-carbonitrile] was 740 nM; that for `CC[C@@H]1CN(c2nc(=O)n(C)c3ccc(C#N)nc23)[C@@H](C)C[C@H]1Oc1ccc(OC(C)C)cn1` [Example 301, 4-((2S,4R,5R)-5-ethyl-4-((5-isopropoxypyridin-2-yl)oxy)-2-methylpiperidin-1-yl)-1-methyl-2-oxo-1,2-dihydropyrido[3,2-d]pyrimidine-6-carbonitrile] was 11000 nM. Regarding `CCO[C@H]1CN(c2cc(=O)n(C)c3ccc(C#N)nc23)CC[C@@H]1Oc1ccc(C(F)(F)F)cn1` (relative stereo) [Example 367, trans-8-(3-Ethoxy-4-((5-(trifluoromethyl)pyridin-2-yl)oxy)piperidin-1-yl)-5-methyl-6-oxo-5,6-dihydro-1,5-naphthyridine-2-carbonitrile], the EC50 is 640 nM.

Still in this test, the particulars now being: human whole blood pERK; read-out: DGK HWB.
Turning to `CCO[C@H]1CN(c2cc(=O)n(C)c3ccc(C#N)nc23)CC[C@@H]1Oc1cccc(C(F)(F)F)n1` (relative stereo) [Example 363, trans-8-(3-Ethoxy-4-((6-(trifluoromethyl)pyridin-2-yl)oxy)piperidin-1-yl)-5-methyl-6-oxo-5,6-dihydro-1,5-naphthyridine-2-carbonitrile], the EC50 was 1100 nM. On to `CCO[C@H]1CN(c2cc(=O)n(C)c3ccc(C#N)nc23)CC[C@@H]1Oc1ccc(C(F)(F)F)cc1` [Example 344, 8-((3S,4S)-3-ethoxy-4-(4-(trifluoromethyl)phenoxy)piperidin-1-yl)-5-methyl-6-oxo-5,6-dihydro-1,5-naphthyridine-2-carbonitrile], for which the EC50 was 20000 nM. Regarding `CCO[C@H]1CN(c2cc(=O)n(C)c3ccc(C#N)nc23)CC[C@@H]1Oc1cc(C(F)(F)F)ccn1` [Example 366, 8-((3S,4S)-3-ethoxy-4-((4-(trifluoromethyl)pyridin-2-yl)oxy)piperidin-1-yl)-5-methyl-6-oxo-5,6-dihydro-1,5-naphthyridine-2-carbonitrile], the EC50 was found to be 20000 nM.

For `CC1CN(c2c(C#N)c(=O)n(C)c3ccc(C#N)nc23)CCC1N(C)C1CCC(F)(F)CC1` (single isomer, unassigned) [Example 330], the EC50 was 20000 nM.

For the molecule `CCO[C@H]1CN(c2cc(=O)n(C)c3ccc(C#N)nc23)CC[C@@H]1Oc1nc2ccccc2s1` [Example 373], the EC50 was 1600 nM. Take `CCO[C@H]1CN(c2cc(=O)n(C)c3ccc(C#N)nc23)CC[C@@H]1Oc1cccc(OC(F)(F)F)c1` [Example 351, 8-((3S,4S)-3-ethoxy-4-(3-(trifluoromethoxy)phenoxy)piperidin-1-yl)-5-methyl-6-oxo-5,6-dihydro-1,5-naphthyridine-2-carbonitrile]: the EC50 came to 210 nM. As for `CCO[C@H]1CN(c2cc(=O)n(C)c3ccc(C#N)nc23)CC[C@@H]1Oc1ccccc1C(F)(F)F` [Example 345, 8-((3S,4S)-3-ethoxy-4-(2-(trifluoromethyl)phenoxy)piperidin-1-yl)-5-methyl-6-oxo-5,6-dihydro-1,5-naphthyridine-2-carbonitrile], the EC50 stood at 820 nM.

Staying with this test, now noted: human whole blood, CD8 positive population, anti-CD3 stimulation; top concentration 20 μM; read-out: DGK HWB (human whole blood pERK).
For the molecule `Cn1c(=O)cc(N2CC[C@@H](Oc3cccc(C(F)(F)F)c3)[C@H](OCC3CC3)C2)c2nc(C#N)ccc21` [Example 388, 8-((3R,4R)-3-(cyclopropylmethoxy)-4-(3-(trifluoromethyl)phenoxy)piperidin-1-yl)-5-methyl-6-oxo-5,6-dihydro-1,5-naphthyridine-2-carbonitrile], the EC50 amounted to 20000 nM. For the molecule `CCO[C@H]1CN(c2cc(=O)n(C)c3ccc(C#N)nc23)CC[C@@H]1Oc1ccc(OC(C)C)cn1` (relative stereo) [Example 397, trans-8-(4-((5-Isopropoxypyridin-2-yl)oxy)-3-ethoxypiperidin-1-yl)-5-methyl-6-oxo-5,6-dihydro-1,5-naphthyridine-2-carbonitrile], the EC50 stood at 140 nM.

Still in this test, the particulars now being: read-out: DGK HWB; human whole blood pERK.
As for `CC(C)Oc1ccc(OC2C[C@H](C)N(c3nc(=O)n(C)c4ccc(C#N)nc34)C[C@H]2C)nc1` (stereo partly drawn) [Example 247, 4-((2S,5R)-4-((5-isopropoxypyridin-2-yl)oxy)-2,5-dimethylpiperidin-1-yl)-1-methyl-2-oxo-1,2-dihydropyrido[3,2-d]pyrimidine-6-carbonitrile], the EC50 amounted to 740 nM. The same measure, in the same setting: to `C[C@H]1CN(c2cc(=O)n(C)c3ccc(C#N)nc23)[C@@H](C)CC1N(C)Cc1ccc(F)cc1` (single isomer, unassigned) [Example 333] belongs 5500 nM.

In the case of `CC1CN(c2c(C#N)c(=O)n(C)c3ccc(C#N)nc23)CCC1N(C)C(=O)c1ccc(C(F)(F)F)cc1` (single isomer, unassigned) [Example 293, N-(1-(3,6-dicyano-1-methyl-2-oxo-1,2-dihydro-1,5-naphthyridin-4-yl)-3-methylpiperidin-4-yl)-N-methyl-4-(trifluoromethyl)benzamide], the EC50 was determined as 20000 nM. Regarding `CCO[C@H]1CN(c2cc(=O)n(C)c3ccc(C#N)nc23)CC[C@@H]1Oc1ccc(Cl)c(F)c1` [Example 358, 8-((3S,4S)-4-(4-chloro-3-fluorophenoxy)-3-ethoxypiperidin-1-yl)-5-methyl-6-oxo-5,6-dihydro-1,5-naphthyridine-2-carbonitrile], the EC50 turned out to be 7000 nM.

The record behind these values is patent US11964973B2 (priority 2019, dated 2024).
